Test results from ChEMBL document CHEMBL3885881, “DrugMatrix”.

Organism: Rattus norvegicus
Assay: DrugMatrix - Regimen: Daily Repeat
Format: toxicity, organism-based, Sprague-Dawley
Set-up: regimen Daily Repeat, gender Male, age 6-8 weeks
Settings: in vivo, po, route oral GAVAGE, […]; for ABSOLUTE BASOPHIL / ABSOLUTE EOSINOPHIL / ABSOLUTE LYMPHOCYTE / ABSOLUTE MONOCYTE / ABSOLUTE SEGMENTED NEUTROPHIL / BASOPHIL / EOSINOPHIL / ERYTHROCYTE COUNT / HEMATOCRIT / HEMOGLOBIN / LEUKOCYTE COUNT / LYMPHOCYTE / MEAN CORPUSCULAR HEMOGLOBIN / MEAN CORPUSCULAR HEMOGLOBIN CONCENTRATION / MEAN CORPUSCULAR VOLUME / MONOCYTE / NEUTROPHIL / NUCLEATED RED BLOOD CELLS / PLATELET COUNT: tissue Blood; for ALANINE AMINOTRANSFERASE / ALBUMIN / ALKALINE PHOSPHATASE / ASPARTATE AMINOTRANSFERASE / BLOOD UREA NITROGEN / CARBON DIOXIDE / CHLORIDE / CHOLESTEROL / CREATINE PHOSPHOKINASE / CREATININE / GLUCOSE / LACTATE DEHYDROGENASE / LIPASE / PHOSPHORUS / POTASSIUM / SODIUM / TOTAL BILIRUBIN / TOTAL PROTEIN / URIC ACID: tissue Plasma
[1] = 29 mg/kg, 120 h, dose level Low, time 5 day
[2] = 450 mg/kg, 72 h, dose level High, time 3 day
[3] = 450 mg/kg, 120 h, dose level High, time 5 day

C[C@@H]1CN(c2c(F)c(N)c3c(=O)c(C(=O)O)cn(C4CC4)c3c2F)C[C@H](C)N1 [SPARFLOXACIN]
ABSOLUTE BASOPHIL [1]: 0 CELLS/uL
ABSOLUTE EOSINOPHIL [1]: 69.33 CELLS/uL
ABSOLUTE LYMPHOCYTE [1]: 8350.33 CELLS/uL
ABSOLUTE MONOCYTE [1]: 91.33 CELLS/uL
ABSOLUTE SEGMENTED NEUTROPHIL [1]: 455.67 CELLS/uL
BASOPHIL [1]: 0%
EOSINOPHIL [1]: 0.67%
ERYTHROCYTE COUNT [1]: 5.79 x10E6/uL
HEMATOCRIT [1]: 35.13%
HEMOGLOBIN [1]: 13.97 G/DL
LEUKOCYTE COUNT [1]: 8.97 x10E3/uL
LYMPHOCYTE [1]: 93%
MEAN CORPUSCULAR HEMOGLOBIN [1]: 24.13 pg
MEAN CORPUSCULAR HEMOGLOBIN CONCENTRATION [1]: 39.73 G/DL
MEAN CORPUSCULAR VOLUME [1]: 60.73 fL
MONOCYTE [1]: 1%
NEUTROPHIL [1]: 5.33%
NUCLEATED RED BLOOD CELLS [1]: 0 /100WBC
PLATELET COUNT [1]: 1048 x10E3/uL
ALANINE AMINOTRANSFERASE [1]: 62 u/L
ALBUMIN [1]: 4.03 G/DL
ALKALINE PHOSPHATASE [1]: 251.67 u/L
ASPARTATE AMINOTRANSFERASE [1]: 82 u/L
BLOOD UREA NITROGEN [1]: 13.33 mg/dL
CARBON DIOXIDE [1]: 33 mmol/L
CHLORIDE [1]: 98.33 MEQ/L
CHOLESTEROL [1]: 65.67 mg/dL
CREATINE PHOSPHOKINASE [1]: 381.67 u/L
CREATININE [1]: 0.18 mg/dL
GLUCOSE [1]: 147.33 mg/dL
LACTATE DEHYDROGENASE [1]: 161.33 u/L
LIPASE [1]: 12 u/L
PHOSPHORUS [1]: 10.9 mg/dL
POTASSIUM [1]: 6.43 MEQ/L
SODIUM [1]: 144.2 MEQ/L
TOTAL BILIRUBIN [1]: 0.13 mg/dL
TOTAL PROTEIN [1]: 6 G/DL
URIC ACID [1]: 0.77 mg/dL
ABSOLUTE BASOPHIL [2]: 0 CELLS/uL
ABSOLUTE EOSINOPHIL [2]: 0 CELLS/uL
ABSOLUTE LYMPHOCYTE [2]: 14211.67 CELLS/uL
ABSOLUTE MONOCYTE [2]: 0 CELLS/uL
ABSOLUTE SEGMENTED NEUTROPHIL [2]: 1355 CELLS/uL
BASOPHIL [2]: 0%
EOSINOPHIL [2]: 0%
ERYTHROCYTE COUNT [2]: 5.74 x10E6/uL
HEMATOCRIT [2]: 34.87%
HEMOGLOBIN [2]: 13.93 G/DL
LEUKOCYTE COUNT [2]: 15.57 x10E3/uL
LYMPHOCYTE [2]: 91.33%
MEAN CORPUSCULAR HEMOGLOBIN [2]: 24.3 pg
MEAN CORPUSCULAR HEMOGLOBIN CONCENTRATION [2]: 40 G/DL
MEAN CORPUSCULAR VOLUME [2]: 60.77 fL
MONOCYTE [2]: 0%
NEUTROPHIL [2]: 8.67%
NUCLEATED RED BLOOD CELLS [2]: 0 /100WBC
PLATELET COUNT [2]: 1148.33 x10E3/uL
ALANINE AMINOTRANSFERASE [2]: 55.33 u/L
ALBUMIN [2]: 3.93 G/DL
ALKALINE PHOSPHATASE [2]: 277.33 u/L
ASPARTATE AMINOTRANSFERASE [2]: 69.33 u/L
BLOOD UREA NITROGEN [2]: 12 mg/dL
CARBON DIOXIDE [2]: 31.67 mmol/L
CHLORIDE [2]: 101 MEQ/L
CHOLESTEROL [2]: 72.33 mg/dL
CREATINE PHOSPHOKINASE [2]: 173 u/L
CREATININE [2]: 0.21 mg/dL
GLUCOSE [2]: 159.67 mg/dL
LACTATE DEHYDROGENASE [2]: 146 u/L
LIPASE [2]: 10.67 u/L
PHOSPHORUS [2]: 10.6 mg/dL
POTASSIUM [2]: 6.2 MEQ/L
SODIUM [2]: 143.4 MEQ/L
TOTAL BILIRUBIN [2]: 0.17 mg/dL
TOTAL PROTEIN [2]: 5.73 G/DL
URIC ACID [2]: 1.3 mg/dL
ABSOLUTE BASOPHIL [3]: 0 CELLS/uL
ABSOLUTE EOSINOPHIL [3]: 0 CELLS/uL
ABSOLUTE LYMPHOCYTE [3]: 8740 CELLS/uL
ABSOLUTE MONOCYTE [3]: 96.67 CELLS/uL
ABSOLUTE SEGMENTED NEUTROPHIL [3]: 396.67 CELLS/uL
BASOPHIL [3]: 0%
EOSINOPHIL [3]: 0%
ERYTHROCYTE COUNT [3]: 5.14 x10E6/uL
HEMATOCRIT [3]: 33.83%
HEMOGLOBIN [3]: 13.17 G/DL
LEUKOCYTE COUNT [3]: 9.23 x10E3/uL
LYMPHOCYTE [3]: 94.67%
MEAN CORPUSCULAR HEMOGLOBIN [3]: 25.83 pg
MEAN CORPUSCULAR HEMOGLOBIN CONCENTRATION [3]: 38.93 G/DL
MEAN CORPUSCULAR VOLUME [3]: 66.27 fL
MONOCYTE [3]: 1%
NEUTROPHIL [3]: 4.33%
NUCLEATED RED BLOOD CELLS [3]: 0 /100WBC
PLATELET COUNT [3]: 1047.33 x10E3/uL
ALANINE AMINOTRANSFERASE [3]: 67.33 u/L
ALBUMIN [3]: 4.03 G/DL
ALKALINE PHOSPHATASE [3]: 374 u/L
ASPARTATE AMINOTRANSFERASE [3]: 88.67 u/L
BLOOD UREA NITROGEN [3]: 11 mg/dL
CARBON DIOXIDE [3]: 30 mmol/L
CHLORIDE [3]: 97.67 MEQ/L
CHOLESTEROL [3]: 86 mg/dL
CREATINE PHOSPHOKINASE [3]: 412.67 u/L
CREATININE [3]: 0.19 mg/dL
GLUCOSE [3]: 177.67 mg/dL
LACTATE DEHYDROGENASE [3]: 159.67 u/L
LIPASE [3]: 10.33 u/L
PHOSPHORUS [3]: 12.17 mg/dL
POTASSIUM [3]: 5.6 MEQ/L
SODIUM [3]: 141 MEQ/L
TOTAL BILIRUBIN [3]: 0.1 mg/dL
TOTAL PROTEIN [3]: 5.93 G/DL
URIC ACID [3]: 1 mg/dL
